The text below walks through data of US11518823B2, “Photoinitiators for light-curable compositions” (priority 2017, dated 2022).

Data set [1] in a line: photo-DSC of hydrogel formulation with PEG700DA and 50 wt % water. As for the experimental part: (§1) In the following examples, of the inventive use of compounds of formula (I) as photo-initiators, reaction mixtures containing the respective photoinitiator, the specified liquid monomer and optionally a specified co-intiator were produced and cured for 10 min under a nitrogen atmosphere by exposure to an OmniCure® S2000 mercury lamp having a wave length filter of 320 to 500 nm and an UV light intensity of 1 W/cm^2, while the progress of the reactions was monitored by photo-DSC type NETSCH DSC 204 F1 Phoenix.
(§2) All measurements were carried out at least twice, the respective tables showing the average values for the respective initiators.
(§3) In the tables, RP represents the polymerization rate and is thus an indicator of the reactivity of a system. A high value means that many monomer groups are reacted at the same time and that the curing process is generally shorter. tmax is the time (in s) it takes until maximum heat development is reached and is thus an indicator of how long it takes to reach the gelling point and thus a certain initial solidity. Short times are thus more desirable. t95% is the time (in s) after which 95% of the entire reaction heat have been released and is thus an indicator of the rate at which a reaction occurs, lower values again being advantageous. DBC is the double bond conversion rate calculated based on the reaction heat released during polymerization (in J per g) of the respective formulation. For the conversion rate, it is desirable to achieve values that are as high as possible.
(§4) In all formulations, the respective photoinitiator was used in an equimolar amount with respect to 1 wt % of ethyl pyruvate (1), which was the initiator having the lowest molecular weight, and weighed in accordingly, and co-initiators, if contained, were weighed in equimolar amounts with respect to the respective initiator. Subsequently, 12±0.5 mg of the reaction mixtures were weighed into DSC aluminum pans, and the pans were covered with cover glasses.
(§5) PBQ was used as a commercially available reference initiator, with MDEA as a co-initiator. The ketoesters ethyl pyruvate (1) and dimethylfurandione (8) can be used as novel initiators without any co-initiator. Due to its longwave absorption maximum (λmax=378 nm instead of 330 nm for compound (1)), compound (8) can also be used using visible light which is harmless for cells.

For data set [2], the system named is mouse fibroblast cell line L929. It is filed as cell-based. An excerpt: This may constitute an additional advantage for biological applications in which hydrogels are commonly used.
Data set [3] can be described thus: longwave absorption maximum. It is filed as physicochemical.
Text: as §5

Data set [4] is described as follows: photo-DSC monitoring of photopolymerization in divinyl adipate. Conditions: monomer DVA, co-initiator DMAB. As for the experimental part: In the following examples, of the inventive use of compounds of formula (I) as photo-initiators, reaction mixtures containing the respective photoinitiator, the specified liquid monomer and optionally a specified co-intiator were produced and cured for 10 min under a nitrogen atmosphere by exposure to an OmniCure® S2000 mercury lamp having a wave length filter of 320 to 500 nm and an UV light intensity of 1 W/cm^2, while the progress of the reactions was monitored by photo-DSC type […]1 Phoenix. All measurements were carried out at least twice, the respective tables showing the average values for the respective initiators. In the tables, RP represents the polymerization rate and is thus an indicator of the reactivity of a system. A high value means that many monomer groups are reacted at the same time and that the curing process is generally shorter. tmax is the time (in s) it takes until maximum heat development is reached and is thus an indicator of how long it takes to reach the gelling point and thus a certain initial solidity. Short times are thus more desirable. t95% is the time (in s) after which 95% of the entire reaction heat have been released and is thus an indicator of the rate at which a reaction occurs, lower values again being advantageous. DBC is the double bond conversion rate calculated based on the reaction heat released during polymerization (in J per g) of the respective formulation. For the conversion rate, it is desirable to achieve values that are as high as possible. In all formulations, the respective photoinitiator was used in an equimolar amount with respect to 1 wt % of ethyl pyruvate (1), which was the initiator having the lowest molecular weight, and weighed in accordingly, and co-initiators, if contained, were weighed in equimolar amounts with respect to the respective initiator. Subsequently, 12±0.5 mg of the reaction mixtures were weighed into DSC aluminum pans, and the pans were covered with cover glasses.

A short description of data set [5]: photo-DSC monitoring of photopolymerization in hexanediol diacrylate. Conditions: monomer HDDA. As for the experimental part: as §1, §2, §3, §4
The nature of data set [6]: photo-DSC monitoring of photopolymerization in dental dimethacrylate mixture. As to conditions: monomer DDM, co-initiator DMAB (Table 7). As for the experimental part:
All measurements were carried out at least twice, the respective tables showing the average values for the respective initiators. In the tables, RP represents the polymerization rate and is thus an indicator of the reactivity of a system. A high value means that many monomer groups are reacted at the same time and that the curing process is generally shorter. tmax is the time (in s) it takes until maximum heat development is reached and is thus an indicator of how long it takes to reach the gelling point and thus a certain initial solidity. Short times are thus more desirable. t95% is the time (in s) after which 95% of the entire reaction heat have been released and is thus an indicator of the rate at which a reaction occurs, lower values again being advantageous. DBC is the double bond conversion rate calculated based on the reaction heat released during polymerization (in J per g) of the respective formulation. For the conversion rate, it is desirable to achieve values that are as high as possible. In all formulations, the respective photoinitiator was used in an equimolar amount with respect to 1 wt % of ethyl pyruvate (1), which was the initiator having the lowest molecular weight, and weighed in accordingly, and co-initiators, if contained, were weighed in equimolar amounts with respect to the respective initiator. […] In this group of experiments, the experiments from Examples 1 to 4 and Comparative Example 1 were repeated, using a di-methacrylate mixture from the field of dental engineering as a monomer instead of the diacrylate that had been used above.

Data set [7] can be described thus: curing test in silicone mold, Intelli-Ray 400 W UV oven. As to conditions: 1 g HDDA with 1 wt % initiator, 100% power, after a few seconds.
Where [8] appears, read: no co-initiator listed (Table 3).

As to `CN(C)CC(O)COc1ccc(C(=O)c2ccccc2)cc1.Cl` (centres unmarked) [BPQ, 3-(4-benzoylphenoxy)-2-hydroxy-N,N-dimethylpropane-1-amine Hydrochloride, reference compound], in data set [1] (co-initiator MDEA), the DBC was 50%, the “RP (polymerization rate)” value came out at 30 mmol/L/s and the t95% came out at 87 s. For the same compound, the “concentration at which significant toxic effects were observed” value in data set [2] was 8000 µM.

Consider `CCOC(=O)C(C)=O` [Compound 1, 2-Oxopropanoic Acid Ethyl Ester], for which, in data set [1] (without co-initiator), the DBC was determined as 48%, the “RP (polymerization rate)” value came to 33 mmol/L/s and the t95% turned out to be 83 s. The “longwave absorption maximum λmax” value in data set [3] is 330 nm. In data set [4], this compound yielded an Area of 466 J/g and a DSC of 1.7 mW · mg^−1. Further, in data set [5] (co-initiator DMAB), the “DBC (double bond conversion)” value is recorded as 66.5%, the “RP (polymerization rate)” value is 230 mmol/L/s and the “t95% (time after which 95% of reaction heat released)” value is listed as 41.7 s. In addition, in data set [5] (setting [8]), the DBC is reported as 69.3%, the “RP (polymerization rate)” value worked out at 210 mmol/L/s and the t95% came to 56.0 s. Besides, in data set [6], the DBC was determined as 57%, the “RP (polymerization rate)” value was determined as 74.5 mmol/L/s and the t95% was determined as 83.0 s.

Regarding `CC(=O)C(=O)OCCN(C)C` [Compound 10, N,N′-dimethylaminopyruvate], the “result of curing test” value in data set [7] is on record as “transparent, hard sample rod was obtained”.
